Results reported in ChEMBL document CHEMBL3763148, “Synthesis, structure elucidation, DNA-PK and PI3K and anti-cancer activity of 8- and 6-aryl-substituted-1-3-benzoxazines” (Eur J Med Chem, 2016).

Key:
[1] = test system: KM12; assay: Cytotoxicity against human KM12 cells assessed as cell growth inhibition at 10 uM after 48 hrs by SRB assay relative to control; assay type: functional; conditions: KM12, 48 h, read-out: GI
[2] = test system: EKVX; assay: Cytotoxicity against human EKVX cells assessed as cell growth inhibition at 10 uM after 48 hrs by SRB assay relative to control; assay type: functional; conditions: read-out: GI
[3] = test system: A549; assay: Cytotoxicity against human A549 cells assessed as cell growth inhibition at 10 uM after 48 hrs by SRB assay relative to control; assay type: functional; conditions: A549, 48 h, read-out: GI
[4] = test system: K562; assay: Cytotoxicity against human K562 cells assessed as cell growth inhibition at 10 uM after 48 hrs by SRB assay relative to control; assay type: functional; conditions: K562, 48 h, read-out: GI
[5] = test system: HT-29; assay: Cytotoxicity against human HT-29 cells assessed as cell growth inhibition at 10 uM after 48 hrs by SRB assay relative to control; assay type: functional; conditions: HT-29, 48 h, read-out: GI
[6] = test system: NCI-H23; assay: Cytotoxicity against human NCI-H23 cells assessed as cell growth inhibition at 10 uM after 48 hrs by SRB assay relative to control; assay type: functional; conditions: NCI-H23, 48 h, read-out: GI
[7] = test system: CCRF-CEM; assay: Cytotoxicity against human CCRF-CEM cells assessed as cell growth inhibition at 10 uM after 48 hrs by SRB assay relative to control; assay type: functional; conditions: read-out: GI
[8] = Cytotoxicity against human SNB75 cells assessed as cell growth inhibition at 10 uM after 48 hrs by SRB assay relative to control; assay type: functional; conditions: SNB-75, 48 h, read-out: GI
[9] = Cytotoxicity against human HL-60(TB) cells assessed as cell growth inhibition at 10 uM after 48 hrs by SRB assay relative to control; assay type: functional; conditions: HL-60, 48 h, read-out: GI
[10] = Cytotoxicity against human PC3 cells assessed as cell growth inhibition at 10 uM after 48 hrs by SRB assay relative to control; assay type: functional; conditions: PC-3, 48 h, read-out: GI
[11] = test system: SN12C; assay: Cytotoxicity against human SN12C cells assessed as cell growth inhibition at 10 uM after 48 hrs by SRB assay relative to control; assay type: functional; conditions: read-out: GI
[12] = Cytotoxicity against human UO31 cells assessed as cell growth inhibition at 10 uM after 48 hrs by SRB assay relative to control; assay type: functional; conditions: UO-31, 48 h, read-out: GI
[13] = Cytotoxicity against human SW620 cells assessed as cell growth inhibition at 10 uM after 48 hrs by SRB assay relative to control; assay type: functional; conditions: SW-620, 48 h, read-out: GI
[14] = test system: U-251; assay: Cytotoxicity against human U251 cells assessed as cell growth inhibition at 10 uM after 48 hrs by SRB assay relative to control; assay type: functional; conditions: U-251, 48 h, read-out: GI
[15] = test system: NCI-H322M; assay: Cytotoxicity against human NCI-H322M cells assessed as cell growth inhibition at 10 uM after 48 hrs by SRB assay relative to control; assay type: functional; conditions: read-out: GI
[16] = target: Phosphatidylinositol 4,5-bisphosphate 3-kinase catalytic subunit gamma isoform (Homo sapiens) (UniProt P48736); assay: Inhibition of PI3Kgamma (unknown origin) at 10 uM incubated for 60 mins by kinase-glo luminescence assay
[17] = test system: MDA-MB-435; assay: Cytotoxicity against human MDA-MB-435 cells assessed as cell growth inhibition at 10 uM after 48 hrs by SRB assay relative to control; assay type: functional; conditions: MDA-MB-435, 48 h, read-out: GI
[18] = test system: ACHN; assay: Cytotoxicity against human ACHN cells assessed as cell growth inhibition at 10 uM after 48 hrs by SRB assay relative to control; assay type: functional; conditions: read-out: GI
[19] = Cytotoxicity against human SF295 cells assessed as cell growth inhibition at 10 uM after 48 hrs by SRB assay relative to control; assay type: functional; conditions: SF-295, 48 h, read-out: GI
[20] = Cytotoxicity against human RPMI8226 cells assessed as cell growth inhibition at 10 uM after 48 hrs by SRB assay relative to control; assay type: functional; conditions: RPMI-8226, 48 h, read-out: GI
[21] = test system: NCI-H226; assay: Cytotoxicity against human NCI-H226 cells assessed as cell growth inhibition at 10 uM after 48 hrs by SRB assay relative to control; assay type: functional; conditions: NCI-H226, 48 h, read-out: GI
[22] = Cytotoxicity against human OVCAR4 cells assessed as cell growth inhibition at 10 uM after 48 hrs by SRB assay relative to control; assay type: functional; conditions: OVCAR-4, 48 h, read-out: GI
[23] = Cytotoxicity against human COLO205 cells assessed as cell growth inhibition at 10 uM after 48 hrs by SRB assay relative to control; assay type: functional; conditions: COLO 205, 48 h, read-out: GI
[24] = test system: NCI-H522; assay: Cytotoxicity against human NCI-H522 cells assessed as cell growth inhibition at 10 uM after 48 hrs by SRB assay relative to control; assay type: functional; conditions: NCI-H522, 48 h, read-out: GI
[25] = test system: 786-0; assay: Cytotoxicity against human 786-0 cells assessed as cell growth inhibition at 10 uM after 48 hrs by SRB assay relative to control; assay type: functional; conditions: 786-0, 48 h, read-out: GI
[26] = Cytotoxicity against human MOLT4 cells assessed as cell growth inhibition at 10 uM after 48 hrs by SRB assay relative to control; assay type: functional; conditions: MOLT-4, 48 h, read-out: GI
[27] = test system: T47D; assay: Cytotoxicity against human T47D cells assessed as cell growth inhibition at 10 uM after 48 hrs by SRB assay relative to control; assay type: functional; conditions: read-out: GI
[28] = Cytotoxicity against human HCT116 cells assessed as cell growth inhibition at 10 uM after 48 hrs by SRB assay relative to control; assay type: functional; conditions: HCT-116, 48 h, read-out: GI
[29] = Cytotoxicity against human HCC2998 cells assessed as cell growth inhibition at 10 uM after 48 hrs by SRB assay relative to control; assay type: functional; conditions: HCC 2998, 48 h, read-out: GI
[30] = test system: NCI-H460; assay: Cytotoxicity against human NCI-H460 cells assessed as cell growth inhibition at 10 uM after 48 hrs by SRB assay relative to control; assay type: functional; conditions: NCI-H460, 48 h, read-out: GI
[31] = test system: SR; assay: Cytotoxicity against human SR cells assessed as cell growth inhibition at 10 uM after 48 hrs by SRB assay relative to control; assay type: functional; conditions: read-out: GI
[32] = test system: Malme-3M; assay: Cytotoxicity against human MALME-3M cells assessed as cell growth inhibition at 10 uM after 48 hrs by SRB assay relative to control; assay type: functional; conditions: read-out: GI
[33] = test system: MDA-MB-231; assay: Cytotoxicity against human MDA-MB-231 cells assessed as cell growth inhibition at 10 uM after 48 hrs by SRB assay relative to control; assay type: functional; conditions: MDA-MB-231, 48 h, read-out: GI
[34] = Cytotoxicity against human HOP92 cells assessed as cell growth inhibition at 10 uM after 48 hrs by SRB assay relative to control; assay type: functional; conditions: HOP-92, 48 h, read-out: GI
[35] = Cytotoxicity against human LOXIMVI cells assessed as cell growth inhibition at 10 uM after 48 hrs by SRB assay relative to control; assay type: functional; conditions: LOX IMVI, read-out: GI
[36] = target: DNA-dependent protein kinase catalytic subunit (Homo sapiens, UniProt P78527); assay: Inhibition of human DNA-PK using EPPLSQEAFADLWKK as substrate by HTRF assay
DNA-dependent protein kinase catalytic subunit, sequence (P78527 whole entry): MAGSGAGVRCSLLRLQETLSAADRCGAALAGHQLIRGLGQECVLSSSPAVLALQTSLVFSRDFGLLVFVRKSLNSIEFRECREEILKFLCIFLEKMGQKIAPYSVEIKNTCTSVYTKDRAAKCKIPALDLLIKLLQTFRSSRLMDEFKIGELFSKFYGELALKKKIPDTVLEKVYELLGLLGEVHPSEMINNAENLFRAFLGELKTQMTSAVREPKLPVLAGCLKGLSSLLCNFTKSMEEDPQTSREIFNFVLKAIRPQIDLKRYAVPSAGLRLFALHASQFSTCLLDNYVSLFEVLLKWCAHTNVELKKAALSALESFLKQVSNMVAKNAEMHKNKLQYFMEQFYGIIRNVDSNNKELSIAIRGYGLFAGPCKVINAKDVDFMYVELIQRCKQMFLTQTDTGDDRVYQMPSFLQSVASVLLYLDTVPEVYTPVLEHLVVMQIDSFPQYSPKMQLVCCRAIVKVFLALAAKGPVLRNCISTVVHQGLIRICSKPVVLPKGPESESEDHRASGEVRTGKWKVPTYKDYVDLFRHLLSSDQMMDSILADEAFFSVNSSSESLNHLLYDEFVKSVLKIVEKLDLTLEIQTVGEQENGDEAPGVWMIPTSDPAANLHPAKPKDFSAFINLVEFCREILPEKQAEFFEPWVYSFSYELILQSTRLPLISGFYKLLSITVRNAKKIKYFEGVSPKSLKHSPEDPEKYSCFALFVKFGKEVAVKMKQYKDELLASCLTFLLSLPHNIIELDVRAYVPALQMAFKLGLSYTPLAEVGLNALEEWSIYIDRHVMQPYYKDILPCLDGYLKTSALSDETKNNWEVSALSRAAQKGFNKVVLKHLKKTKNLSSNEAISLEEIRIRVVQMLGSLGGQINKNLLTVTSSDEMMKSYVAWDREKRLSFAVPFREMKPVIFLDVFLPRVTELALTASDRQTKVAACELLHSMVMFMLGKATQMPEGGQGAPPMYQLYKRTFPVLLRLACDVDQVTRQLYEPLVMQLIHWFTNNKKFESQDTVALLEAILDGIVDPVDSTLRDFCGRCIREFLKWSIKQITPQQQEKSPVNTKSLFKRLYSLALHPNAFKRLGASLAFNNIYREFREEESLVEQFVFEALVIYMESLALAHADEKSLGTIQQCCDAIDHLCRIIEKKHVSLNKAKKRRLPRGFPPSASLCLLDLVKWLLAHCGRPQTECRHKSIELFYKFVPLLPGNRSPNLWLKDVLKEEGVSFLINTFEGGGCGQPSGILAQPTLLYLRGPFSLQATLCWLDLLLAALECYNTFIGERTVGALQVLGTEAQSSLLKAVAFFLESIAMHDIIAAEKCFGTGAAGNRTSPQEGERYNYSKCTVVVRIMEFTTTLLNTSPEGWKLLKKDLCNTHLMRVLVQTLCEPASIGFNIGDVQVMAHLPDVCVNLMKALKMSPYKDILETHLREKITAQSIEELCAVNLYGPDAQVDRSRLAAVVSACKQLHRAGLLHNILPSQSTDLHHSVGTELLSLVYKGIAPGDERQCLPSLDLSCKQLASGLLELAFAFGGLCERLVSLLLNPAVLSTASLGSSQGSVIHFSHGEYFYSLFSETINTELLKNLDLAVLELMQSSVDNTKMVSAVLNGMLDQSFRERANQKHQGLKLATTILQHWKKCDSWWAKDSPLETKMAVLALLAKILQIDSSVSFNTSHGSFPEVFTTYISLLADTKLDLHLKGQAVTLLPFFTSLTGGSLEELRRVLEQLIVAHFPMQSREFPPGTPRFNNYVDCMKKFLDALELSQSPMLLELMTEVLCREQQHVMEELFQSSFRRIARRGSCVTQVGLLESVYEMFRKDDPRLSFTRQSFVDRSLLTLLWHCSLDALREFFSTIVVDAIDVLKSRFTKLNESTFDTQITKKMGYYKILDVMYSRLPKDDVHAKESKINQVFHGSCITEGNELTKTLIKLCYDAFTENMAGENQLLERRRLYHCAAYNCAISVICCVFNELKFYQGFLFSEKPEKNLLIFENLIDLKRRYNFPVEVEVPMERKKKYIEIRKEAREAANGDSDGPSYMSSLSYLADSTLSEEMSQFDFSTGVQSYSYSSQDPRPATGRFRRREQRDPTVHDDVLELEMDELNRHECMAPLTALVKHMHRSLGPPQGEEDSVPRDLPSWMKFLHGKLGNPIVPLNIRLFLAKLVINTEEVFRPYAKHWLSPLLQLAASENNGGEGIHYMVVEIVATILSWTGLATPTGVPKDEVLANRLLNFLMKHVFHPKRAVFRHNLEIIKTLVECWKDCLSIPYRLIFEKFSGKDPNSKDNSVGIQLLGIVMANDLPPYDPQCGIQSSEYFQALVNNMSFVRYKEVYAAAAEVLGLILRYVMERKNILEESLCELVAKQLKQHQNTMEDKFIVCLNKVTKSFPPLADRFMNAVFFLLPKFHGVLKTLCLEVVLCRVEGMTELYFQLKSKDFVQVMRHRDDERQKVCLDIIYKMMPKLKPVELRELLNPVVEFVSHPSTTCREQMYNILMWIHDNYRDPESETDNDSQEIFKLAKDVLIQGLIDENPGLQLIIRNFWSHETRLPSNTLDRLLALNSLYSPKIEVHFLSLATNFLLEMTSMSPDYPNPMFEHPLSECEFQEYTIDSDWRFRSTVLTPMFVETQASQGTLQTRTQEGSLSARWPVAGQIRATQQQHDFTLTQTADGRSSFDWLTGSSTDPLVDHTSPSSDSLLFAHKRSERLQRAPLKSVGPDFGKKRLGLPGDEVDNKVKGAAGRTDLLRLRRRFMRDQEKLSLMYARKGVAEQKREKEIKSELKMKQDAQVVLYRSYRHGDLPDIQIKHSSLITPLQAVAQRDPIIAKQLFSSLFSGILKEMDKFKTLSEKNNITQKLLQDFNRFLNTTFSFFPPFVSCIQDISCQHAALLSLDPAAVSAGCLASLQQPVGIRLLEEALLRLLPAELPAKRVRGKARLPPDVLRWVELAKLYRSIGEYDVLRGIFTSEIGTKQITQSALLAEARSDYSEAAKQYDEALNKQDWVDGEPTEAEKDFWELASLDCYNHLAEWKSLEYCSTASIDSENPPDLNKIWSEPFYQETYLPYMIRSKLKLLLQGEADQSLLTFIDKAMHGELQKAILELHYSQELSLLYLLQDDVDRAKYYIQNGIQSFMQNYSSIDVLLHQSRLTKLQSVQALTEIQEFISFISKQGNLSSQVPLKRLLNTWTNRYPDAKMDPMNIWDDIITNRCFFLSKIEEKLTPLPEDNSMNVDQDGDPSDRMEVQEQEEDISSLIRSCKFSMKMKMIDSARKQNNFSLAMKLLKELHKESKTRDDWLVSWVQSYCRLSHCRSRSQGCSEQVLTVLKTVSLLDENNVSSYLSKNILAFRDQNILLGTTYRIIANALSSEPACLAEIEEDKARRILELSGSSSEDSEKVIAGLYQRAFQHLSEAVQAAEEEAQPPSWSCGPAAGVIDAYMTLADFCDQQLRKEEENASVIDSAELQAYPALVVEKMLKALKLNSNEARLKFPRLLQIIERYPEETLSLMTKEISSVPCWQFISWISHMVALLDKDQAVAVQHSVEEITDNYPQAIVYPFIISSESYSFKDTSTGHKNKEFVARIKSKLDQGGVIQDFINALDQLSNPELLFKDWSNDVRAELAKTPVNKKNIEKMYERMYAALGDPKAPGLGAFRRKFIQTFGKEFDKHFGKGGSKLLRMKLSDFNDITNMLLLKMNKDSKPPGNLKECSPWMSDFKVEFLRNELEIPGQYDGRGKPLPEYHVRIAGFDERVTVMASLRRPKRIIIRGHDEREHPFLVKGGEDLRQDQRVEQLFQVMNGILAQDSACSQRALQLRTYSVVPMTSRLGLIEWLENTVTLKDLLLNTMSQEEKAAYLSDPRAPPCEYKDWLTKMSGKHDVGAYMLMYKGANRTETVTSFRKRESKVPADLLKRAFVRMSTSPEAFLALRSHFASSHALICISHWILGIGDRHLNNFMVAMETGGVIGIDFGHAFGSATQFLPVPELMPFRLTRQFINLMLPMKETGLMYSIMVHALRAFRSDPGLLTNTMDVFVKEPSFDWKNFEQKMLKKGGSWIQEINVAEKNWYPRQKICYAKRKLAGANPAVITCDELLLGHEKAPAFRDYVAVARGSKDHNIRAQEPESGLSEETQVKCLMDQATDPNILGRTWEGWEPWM

SMILES | inhibition of growth at 10 µM [1] [%] | inhibition of growth at 10 µM [2] [%] | inhibition of growth at 10 µM [3] [%] | inhibition of growth at 10 µM [4] [%] | inhibition of growth at 10 µM [5] [%] | inhibition of growth at 10 µM [6] [%] | inhibition of growth at 10 µM [7] [%] | inhibition of growth at 10 µM [8] [%] | inhibition of growth at 10 µM [9] [%] | inhibition of growth at 10 µM [10] [%] | inhibition of growth at 10 µM [11] [%] | inhibition of growth at 10 µM [12] [%] | inhibition of growth at 10 µM [13] [%] | inhibition of growth at 10 µM [14] [%] | inhibition of growth at 10 µM [15] [%] | inhibition [16] [%] | inhibition of growth at 10 µM [17] [%] | inhibition of growth at 10 µM [18] [%] | inhibition of growth at 10 µM [19] [%] | inhibition of growth at 10 µM [20] [%] | further results
O=c1nc(N2CCOCC2)oc2c(-c3ccsc3)cccc12 | 2.74 | 16.3 | 3.82 | -1.04 | 12.7 | 15.4 | 8.93 | 38.8 | 4.04 | 24.6 | 9.14 | 23.4 | 2.66 | 8.75 | 16 | 29 | 3.77 | 2.44 | 17.1 | 3.35 | inhibition of growth at 10 µM [21]: 21.9%; inhibition of growth at 10 µM [22]: 3.41%; inhibition of growth at 10 µM [23]: -5.35%; inhibition of growth at 10 µM [24]: 0.83%; inhibition of growth at 10 µM [25]: 11.9%; inhibition of growth at 10 µM [26]: 9.6%; inhibition of growth at 10 µM [27]: 26.5%; inhibition of growth at 10 µM [28]: 2.6%; inhibition of growth at 10 µM [29]: -2.71%; inhibition of growth at 10 µM [30]: -4.22%; inhibition of growth at 10 µM [31]: 21.9%; inhibition of growth at 10 µM [32]: 9.75%; inhibition of growth at 10 µM [33]: 6.78%; inhibition of growth at 10 µM [34]: 40.7%; inhibition of growth at 10 µM [35]: 10.6%; IC50 [36]: 9.8 µM
O=c1nc(N2CCOCC2)oc2c(-c3cccs3)cccc12 | 1.99 | 14.1 | 5.77 | 0.8 | 6.61 | 13 | 2.36 | 32.7 | 3.68 | 17.2 | -3.08 | 20.2 | 1.09 | 4.68 | 9.05 | 16 | -0.12 | 2.88 | -0.99 | -0.55 | inhibition of growth at 10 µM [21]: 22%; inhibition of growth at 10 µM [22]: 2.16%; inhibition of growth at 10 µM [23]: 1.02%; inhibition of growth at 10 µM [24]: 13.8%; inhibition of growth at 10 µM [25]: 7.7%; inhibition of growth at 10 µM [26]: -0.6%; inhibition of growth at 10 µM [27]: 17.8%; inhibition of growth at 10 µM [28]: 2.65%; inhibition of growth at 10 µM [29]: -4.81%; inhibition of growth at 10 µM [30]: -5.8%; inhibition of growth at 10 µM [31]: 18%; inhibition of growth at 10 µM [32]: 16.1%; inhibition of growth at 10 µM [33]: -6.21%; inhibition of growth at 10 µM [34]: 44.4%; inhibition of growth at 10 µM [35]: 14.4%; IC50 [36]: 7.12 µM
O=c1nc(N2CCOCC2)oc2c(-c3cccc4c3sc3ccccc34)cccc12 | 21.6 | 28.3 | 22.5 | 20.6 | 16.9 | 13.4 | 19.9 | 53 | 11.5 | 40.5 | 18 | 52 | 5.95 | 17.8 | 18.3 | 27 | 4.77 | 22.3 | 11 | 19.7 | inhibition of growth at 10 µM [21]: 38.6%; inhibition of growth at 10 µM [22]: 7.25%; inhibition of growth at 10 µM [23]: 3.36%; inhibition of growth at 10 µM [24]: 28.6%; inhibition of growth at 10 µM [25]: 27.7%; inhibition of growth at 10 µM [26]: 10.4%; inhibition of growth at 10 µM [27]: 42.8%; inhibition of growth at 10 µM [28]: 18.7%; inhibition of growth at 10 µM [29]: 3.55%; inhibition of growth at 10 µM [30]: 4.79%; inhibition of growth at 10 µM [31]: 50.9%; inhibition of growth at 10 µM [32]: 12.4%; inhibition of growth at 10 µM [33]: 29.5%; inhibition of growth at 10 µM [34]: 53.8%; inhibition of growth at 10 µM [35]: 21.3%; IC50 [36]: 0.034 µM
